Source: BindingDB's records for doi:10.7270/Q26T0K2P (Nmmlsc, 2010)

Target: T1, Regulator of G-protein signaling 19 (Homo sapiens, UniProt P49795)
T1 sequence (P49795 whole entry): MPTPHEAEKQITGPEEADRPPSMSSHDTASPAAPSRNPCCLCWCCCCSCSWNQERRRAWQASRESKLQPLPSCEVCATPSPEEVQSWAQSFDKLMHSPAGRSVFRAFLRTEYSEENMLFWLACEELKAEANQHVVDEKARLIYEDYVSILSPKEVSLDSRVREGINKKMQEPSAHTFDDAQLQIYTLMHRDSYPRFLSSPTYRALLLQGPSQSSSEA
Assay: RGS19-Galphao binding modulators, analog potency, SAR follow-up, biochemical, SAR compounds, multiplexed bead flow cytometry (AID 2311)

Ki: 100 nM
SMILES: NS(=O)(=O)c1ccc(N=NCc2ccc(O)c(O)c2O)c([N+](=O)[O-])c1 [4-[[(E)-(2,3-dihydroxy-4-oxo-1-cyclohexa-2,5-dienylidene)methyl]hydrazo]-3-nitrobenzenesulfonamide]
